Inhibition in vivo data for eleven molecules are collected here from US4472401A, “Pyrimido-quinoxalines having antiallergic properties” (Roussel Uclaf, priority 1981, dated 1984).

The experiment concerns passive cutaneous reaction mediated by Ig G antibodies. The experiment can be described thus: Passive cutaneous anaphylaxis in the rat (PCR), Ig G mediated, inhibition after oral administration. It is filed as in vivo. The conditions noted are these: male Wistar rats. The protocol:
Passive cutaneous anaphylaxis in the rat (PCR)
Passive cataneous anaphylaxis in the rat was carried out in male Wistar rats weighing 180-200 g sensitized by intradermal injection into four sites on shaved backs so as to produce a passive cutaneous reaction mediated by Ig G antibodies (a 4 hour sensitization following injection of antiserum heated at 56° C. for one hour). Antigen challenge was carried out in the same way; 1 mg of ovalbumen together with 0.5 ml of 1% Evans blue dye solution was injected intravenously and 30 minutes later, the animals were killed and the severity and area of each blue spot was scored when viewed from the reverse side of the skin.

Molecules are shown by their SMILES.

Molecule `CCOC(=O)c1cnc2n(c1=O)-c1ccccc1N(C)C2` [Example 15, Ethyl 5,6-dihydro-6-methyl-1-oxo-1H-pyrimido [1,2-a] quinoxaline-2-carboxylate] had an inhibition in vivo at 0.1 mg/kg of 7.7%, an inhibition in vivo at 1 mg/kg of 7.7% and an inhibition in vivo at 10 mg/kg of 30.2%.

Molecule `CCOC(=O)c1cnc2n(c1=O)-c1ccccc1NC2` [Example 1, Ethyl 5,6-dihydro-1-oxo-1H-pyrimido [1,2-a] quinoxaline-2-carboxylate] yielded an inhibition in vivo at 1 mg/kg of 23% and an inhibition in vivo at 10 mg/kg of 51%.

Molecule `CCOC(=O)c1cnc2n(c1=O)-c1ccccc1N(C=O)C2` [Example 13, Ethyl 5,6-dihydro-6-formyl-1-oxo-1H-pyrimido [1,2-a]quinoxaline-2-carboxylate] returned an inhibition in vivo at 0.1 mg/kg of 0.6%, an inhibition in vivo at 1 mg/kg of 4.1% and an inhibition in vivo at 10 mg/kg of 12.4%.

Consider `CCOC(=O)c1cnc2n(c1=O)-c1ccccc1N(C(=O)CC)C2` [Example 7], for which 1 mg/kg produced 8.2% inhibition in vivo and testing at 10 mg/kg gave an inhibition in vivo of 5.8%.

In the case of `CCOC(=O)c1cnc2n(c1=O)-c1ccccc1N(C(=O)c1ccccc1)C2` [Example 6, ethyl 6-benzoyl-1-oxo-5,6-dihydro-1H-pyrimido [1,2,-a] quinoxaline-2-carboxylate], testing at 1 mg/kg gave an inhibition in vivo of 23% and the inhibition in vivo at 10 mg/kg is 43%.

In the case of `CCOC(=O)c1cnc2n(c1=O)-c1ccccc1N(C(=O)C1CCCC1)C2` [Example 8], the inhibition in vivo at 1 mg/kg came to 5.4% and the inhibition in vivo at 10 mg/kg amounted to 14.8%.

Consider `CCOC(=O)c1cnc2n(c1=O)-c1ccccc1N(C(=O)C1CC1)C2` [Example 5], for which the inhibition in vivo at 1 mg/kg came to 23% and the inhibition in vivo at 10 mg/kg turned out to be 33.3%.

In the case of `CCOC(=O)c1cnc2n(c1=O)-c1ccccc1N(C(=O)C(C)C)C2` [Example 4], at 0.1 mg/kg the inhibition in vivo was 4.1%, the inhibition in vivo at 1 mg/kg was found to be 16% and the inhibition in vivo at 10 mg/kg came out at 8.9%.

In turn, `CCOC(=O)c1cnc2n(c1=O)-c1ccccc1N(C(C)=O)C2` [Example 3, Ethyl 6-acetyl-5,6-dihydro-1-oxo-1H-pyrimido [1,2-a] quinoxaline-2-carboxylate] showed an inhibition in vivo at 1 mg/kg of 18.5% and an inhibition in vivo at 10 mg/kg of 33.3%.

As for `CCOC(=O)c1cnc2n(c1=O)-c1ccccc1N(C(=O)OCC)C2` [Example 2, Diethyl 5,6-dihydro-1-oxo-1H-pyrimido [1,2-a] quinoxaline-2,6-dicarboxylate], testing at 1 mg/kg gave an inhibition in vivo of 31% and 10 mg/kg produced 34.9% inhibition in vivo.

In turn, `CCOC(=O)c1cnc2n(c1=O)-c1ccccc1N(C(=O)Nc1ccccc1)C2` [Example 14, Ethyl 5,6-dihydro-1-oxo-6-phenylcarbamoyl-1H-pyrimido [1,2-a] quinoxaline-2-carboxylate] came in with an inhibition in vivo at 1 mg/kg of 17.6% and an inhibition in vivo at 10 mg/kg of 15.2%.

By inhibition in vivo is commonly meant the percentage by which the read-out fell short of the control.
